US12662491B2 (Redona Therapeutics, Inc., priority 2020, dated 2026)

target: T1, Zcchc11 enzyme (Homo sapiens, UniProt Q5TAX3); test: TUTase assay (Zcchc11 assay, Lin28a-dependent polyuridylation of pre-let-7); type: biochemical; settings: LIN28A 10 nM, Zcchc11 0.2 nM, 5′-fluorescein pre-let-7 miRNA 2 nM, UTP 5 uM, room temperature, 30 minutes pre-incubation; read-out: Potency Lin28a-dep Z11 IC50
T1 construct: made in house; host or cells: HEK293 cells (Zcchc11); E. coli Rosetta II (LIN28A)
T1 sequence (Q5TAX3 212-1420): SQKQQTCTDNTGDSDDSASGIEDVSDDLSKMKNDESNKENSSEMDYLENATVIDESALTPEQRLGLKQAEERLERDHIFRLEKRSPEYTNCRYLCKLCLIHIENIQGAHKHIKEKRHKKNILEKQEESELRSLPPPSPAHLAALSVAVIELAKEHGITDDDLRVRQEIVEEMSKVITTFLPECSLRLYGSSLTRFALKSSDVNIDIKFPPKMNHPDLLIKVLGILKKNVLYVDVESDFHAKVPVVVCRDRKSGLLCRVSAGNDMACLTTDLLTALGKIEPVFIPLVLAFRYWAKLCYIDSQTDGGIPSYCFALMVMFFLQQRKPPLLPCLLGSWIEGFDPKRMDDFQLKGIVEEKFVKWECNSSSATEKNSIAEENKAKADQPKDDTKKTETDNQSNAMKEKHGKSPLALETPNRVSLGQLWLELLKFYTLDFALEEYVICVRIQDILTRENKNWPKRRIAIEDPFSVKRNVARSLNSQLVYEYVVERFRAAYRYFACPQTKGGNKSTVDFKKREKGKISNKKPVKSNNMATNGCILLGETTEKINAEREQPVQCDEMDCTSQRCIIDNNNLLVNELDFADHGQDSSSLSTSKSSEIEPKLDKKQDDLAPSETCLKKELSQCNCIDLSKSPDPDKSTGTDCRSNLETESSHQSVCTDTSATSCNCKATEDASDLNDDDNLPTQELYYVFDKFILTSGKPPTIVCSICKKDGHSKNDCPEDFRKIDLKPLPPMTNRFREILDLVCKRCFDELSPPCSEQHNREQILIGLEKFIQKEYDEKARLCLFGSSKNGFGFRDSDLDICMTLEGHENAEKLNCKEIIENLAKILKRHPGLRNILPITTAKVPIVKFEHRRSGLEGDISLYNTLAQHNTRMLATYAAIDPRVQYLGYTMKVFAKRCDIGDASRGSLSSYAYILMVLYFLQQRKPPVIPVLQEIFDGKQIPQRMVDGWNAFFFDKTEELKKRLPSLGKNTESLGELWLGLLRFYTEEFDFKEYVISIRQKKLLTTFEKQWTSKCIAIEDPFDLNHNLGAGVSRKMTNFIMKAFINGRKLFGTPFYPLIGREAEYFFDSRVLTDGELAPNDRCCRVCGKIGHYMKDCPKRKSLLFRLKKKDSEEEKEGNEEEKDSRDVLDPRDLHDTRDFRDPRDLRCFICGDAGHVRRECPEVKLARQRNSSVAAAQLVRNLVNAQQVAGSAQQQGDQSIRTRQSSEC
Summary of the method: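 Readout: time-dependent quench of 5′-fluorescein pre-let-7 (2 nM) as 3′-rhodamine A20 probe anneals to poly(U) tails. Enzyme 0.2 nM Zcchc11 (res. 212-1420), LIN28A 10 nM, UTP 5 uM; pH 7.3 HEPES, 150 mM KCl, 5 mM MgCl2, RT. 4-parameter IC50; 100% = DMSO, 0% = no UTP.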

| Compound | IC50 [nM] |
| --- | --- |
| CN(C)C1CN(c2ccc(-n3cc(C(=O)O)c(=O)c4cc(Cl)c(N5CC(F)(F)C[C@@H]5COc5ncccc5Cl)nc43)cn2)C1 [Example 60, 6-chloro-7-[(2R)-2-[[(3-chloropyridin-2-yl)oxy]methyl]-4,4-difluoropyrrolidin-1-yl]-1-[6-[3-(dimethylamino)azetidin-1-yl]pyridin-3-yl]-4-oxo-1,8-naphthyridine-3-carboxylic acid] | ≤ 1000 |
| CN(C)C1CN(c2ccc(-n3cc(C(=O)O)c(=O)c4cc(F)c(N5C[C@H](c6cccnc6)C[C@@H]5COc5ncccc5Cl)cc43)cn2)C1 [Example 61, 7-[(2R)-2-[[(3-Chloropyridin-2-yl)oxy]methyl]-4-(pyridin-3-yl)pyrrolidin-1-yl]-1-[6-[3-(dimethylamino)azetidin-1-yl]pyridin-3-yl]-6-fluoro-4-oxoquinoline-3-carboxylic acid] | ≤ 1000 |
| CN(C)C1CN(c2ccc(-n3cc(C(=O)O)c(=O)c4cc(Cl)c(N5CC(C6CCC6)C[C@@H]5COc5ncccc5Cl)cc43)cn2)C1 (stereo partly drawn) [Example 63, 6-chloro-7-((2R)-2-(((3-chloropyridin-2-yl)oxy)methyl)-4-cyclobutylpyrrolidin-1-yl)-1-(6-(3-(dimethylamino)azetidin-1-yl)pyridin-3-yl)-4-oxo-1,4-dihydroquinoline-3-carboxylic acid] | ≤ 1000 |
| COc1ccc(Cl)c(OCC2C3CC(C3)N2c2cc3c(cc2Cl)c(=O)c(C(=O)O)cn3-c2ccc(N3CC(N(C)C)C3)nc2)n1 (stereo not drawn) [Example 64, 6-chloro-7-(3-(((3-chloro-6-methoxypyridin-2-yl)oxy)methyl)-2-azabicyclo[2.1.1]hexan-2-yl)-1-(6-(3-(dimethylamino)azetidin-1-yl)pyridin-3-yl)-4-oxo-1,4-dihydroquinoline-3-carboxylic acid] | ≤ 1000 |
| CC1CCN(c2cc3c(cc2Cl)c(=O)c(C(=O)O)cn3-c2ccnc(N)c2)[C@H]1COc1nc(N(C)C)ccc1Cl (stereo partly drawn) [Example 65, 1-(2-aminopyridin-4-yl)-6-chloro-7-[(2R)-2-({[3-chloro-6-(dimethylamino)pyridin-2-yl]oxy}methyl)-3-methylpyrrolidin-1-yl]-4-oxoquinoline-3-carboxylic acid] | ≤ 1000 |
| COc1ccc(Cl)c(OCC2N(c3cc4c(cc3Cl)c(=O)c(C(=O)O)cn4-c3cc(N)cnn3)CCC2(C)C)n1 (stereo not drawn) [Example 67, 1-(5-Aminopyridazin-3-yl)-6-chloro-7-(2-(((3-chloro-6-methoxypyridin-2-yl)oxy)methyl)-3,3-dimethylpyrrolidin-1-yl)-4-oxo-1,4-dihydroquinoline-3-carboxylic acid] | ≤ 1000 |
| CO/N=C1/C[C@H](COc2nc(OC)ccc2Cl)N(c2cc3c(cc2Cl)c(=O)c(C(=O)O)cn3-c2ccc(N3CC(N(C)C)C3)nc2)C1 [Example 69, 6-chloro-7-[(2R,4Z)-2-[[(3-chloro-6-methoxypyridin-2-yl)oxy]methyl]-4-(methoxyimino)pyrrolidin-1-yl]-1-[6-[3-(dimethylamino)azetidin-1-yl]pyridin-3-yl]-4-oxoquinoline-3-carboxylic acid] | ≤ 1000 |
| COc1ccc(Cl)c(OC[C@H]2CC(c3cn[nH]c3)CN2c2cc3c(cc2F)c(=O)c(C(=O)O)cn3-c2ccc(N3CC(N(C)C)C3)nc2)n1 (stereo partly drawn) [Example 71, 7-[(2R)-2-[[(3-chloro-6-methoxypyridin-2-yl)oxy]methyl]-4-(1H-pyrazol-4-yl)pyrrolidin-1-yl]-1-[6-[3-(dimethylamino)azetidin-1-yl]pyridin-3-yl]-6-fluoro-4-oxoquinoline-3-carboxylic acid] | ≤ 1000 |
| COc1ccnc(OC[C@H]2CCCN2c2cc3c(cc2Cl)c(=O)c(C(=O)O)cn3-c2ccc(N3CC(N(C)C)C3)nc2)c1Cl [Example 75, 6-chloro-7-[(2R)-2-{[(3-chloro-4-methoxypyridin-2-yl)oxy]methyl}pyrrolidin-1-yl]-1-{6-[3-(dimethylamino)azetidin-1-yl]pyridin-3-yl}-4-oxo-1,4-dihydroquinoline-3-carboxylic acid] | ≤ 1000 |
| O=C(O)c1cn(-c2cnccn2)c2cc(N3C[C@@H](F)C[C@H]3COc3ncccc3Cl)c(Cl)cc2c1=O [Example 77, 6-chloro-7-[(2S,4S)-2-{[(3-chloropyridin-2-yl)oxy]methyl}-4-fluoropyrrolidin-1-yl]-4-oxo-1-(pyrazin-2-yl)-1,4-dihydroquinoline-3-carboxylic acid] | ≤ 1000 |
| CN(C)C1CN(c2ccc(-n3cc(C(=O)O)c(=O)c4cc(Cl)c(N5CCC[C@@H]5COc5ncccc5Cl)cc43)cn2)C1 [Example 78, 6-chloro-7-[(2R)-2-{[(3-chloropyridin-2-yl)oxy]methyl}pyrrolidin-1-yl]-1-{6-[3-(dimethylamino)azetidin-1-yl]pyridin-3-yl}-4-oxo-1,4-dihydroquinoline-3-carboxylic acid] | ≤ 1000 |

Other lines, results leading:

| IC50 [nM] | Compound |
| --- | --- |
| ≤ 1000 | CN(C)C1CN(c2ccc(-n3cc(C(=O)O)c(=O)c4cc(F)c(N5C[C@@H](c6cccnc6)C[C@@H]5COc5ncccc5Cl)cc43)cn2)C1 [Example 62, 7-[(2R,4R)-2-[[(3-chloropyridin-2-yl)oxy]methyl]-4-(pyridin-3-yl)pyrrolidin-1-yl]-1-[6-[3-(dimethylamino)azetidin-1-yl]pyridin-3-yl]-6-fluoro-4-oxoquinoline-3-carboxylic acid] |
| ≤ 1000 | COc1ccc(Cl)c(OC[C@H]2CC3CC3N2c2cc3c(cc2F)c(=O)c(C(=O)O)cn3-c2ccnc(N)c2)n1 (stereo partly drawn) [Example 66, 1-(2-Aminopyridin-4-yl)-7-((3R)-3-(((3-chloro-6-methoxypyridin-2-yl)oxy)methyl)-2-azabicyclo[3.1.0]hexan-2-yl)-6-fluoro-4-oxo-1,4-dihydroquinoline-3-carboxylic acid] |
| ≤ 1000 | COc1ccc(Cl)c(OC[C@H]2C[C@H]3C[C@H]3N2c2cc3c(cc2F)c(=O)c(C(=O)O)cn3-c2ccc(N3CC(N(C)C)C3)nc2)n1 [Example 68, 7-((1R,3R,5R)-3-(((3-chloro-6-methoxypyridin-2-yl)oxy)methyl)-2-azabicyclo[3.1.0]hexan-2-yl)-1-(6-(3-(dimethylamino)azetidin-1-yl)pyridin-3-yl)-6-fluoro-4-oxo-1,4-dihydroquinoline-3-carboxylic acid] |
| ≤ 1000 | COc1ccc(Cl)c(OC[C@H]2C[C@@H]3C[C@@H]3N2c2cc3c(cc2F)c(=O)c(C(=O)O)cn3-c2ccc(N3CC(N(C)C)C3)nc2)n1 [Example 70, 7-[(3R)-3-{[(3-chloro-6-methoxypyridin-2-yl)oxy]methyl}-2-azabicyclo[3.1.0]hexan-2-yl]-1-{6-[3-(dimethylamino)azetidin-1-yl]pyridin-3-yl}-6-fluoro-4-oxo-1,4-dihydroquinoline-3-carboxylic acid] |
| ≤ 1000 | COc1ccc(Cl)c(OC[C@H]2CC3CC3N2c2cc3c(cc2F)c(=O)c(C(=O)O)cn3-c2ccc(N3CC(N(C)C)C3)nc2)n1 (stereo partly drawn) [Example 72, 7-[(3R)-3-{[(3-chloro-6-methoxypyridin-2-yl)oxy]methyl}-2-azabicyclo[3.1.0]hexan-2-yl]-1-{6-[3-(dimethylamino)azetidin-1-yl]pyridin-3-yl}-6-fluoro-4-oxo-1,4-dihydroquinoline-3-carboxylic acid] |
| ≤ 1000 | COc1ccc(Cl)c(OC[C@H]2C[C@@H]3C[C@@H]3N2c2cc3c(cc2F)c(=O)c(C(=O)O)cn3-c2ccc(N3CC(N(C)C)C3)nc2)n1 [Example 74, 7-[(1S,3R,5S)-3-{[(3-chloro-6-methoxypyridin-2-yl)oxy]methyl}-2-azabicyclo[3.1.0]hexan-2-yl]-1-{6-[3-(dimethylamino)azetidin-1-yl]pyridin-3-yl}-6-fluoro-4-oxo-1,4-dihydroquinoline-3-carboxylic acid] |
| ≤ 1000 | O=C(O)c1cn(-c2cc3n(n2)CCOC3)c2cc(N3CCC[C@@H]3COc3ncccc3Cl)c(Cl)cc2c1=O [Example 76, (R)-6-chloro-7-(2-(((3-chloropyridin-2-yl)oxy)methyl)pyrrolidin-1-yl)-1-(6,7-dihydro-4H-pyrazolo[5,1-c][1,4]oxazin-2-yl)-4-oxo-1,4-dihydroquinoline-3-carboxylic acid] |
